# Laboratory results as given in patent US20230355605A1, “DRUG FOR ENHANCING FIBRINOLYTIC SYSTEM, AND USE THEREFOR” (priority 2020, published 2023).
# Columns and labels:
# [1] = tested on: chronic-phase chronic myeloid leukemia (CML) patients; test: Phase II study in combination with TKI in chronic-phase CML patients (4 weeks); assay type: in vivo, human
# From the text: The present compound and a tyrosine kinase inhibitor (hereinafter referred to as “TKI”) were used in combination and repeatedly administered orally to patients with chronic-phase chronic myeloid leukemia (CML patients) to evaluate the safety of the present compound and the effectiveness of the present compound against CML.
# Oral administration of the TKI, which is a drug used in combination, was continued for a total of 12 weeks, including the 8-week observation period. The safety analysis set (SAS) and the full analysis set (FAS) each consisted of the 21 patients, and the per protocol set (PPS) consisted of 18 patients.
# BCR-ABL^IS = test: Phase II long-term administration study with TKI in chronic-phase CML: efficacy against CML; assay type: in vivo, human; conditions: for Cumulative number of patients who achieved a DMR / Cumulative rate of patients who achieved a DMR: with TKI
# Protocol: Further, the efficacy of the combined use of the present compound and the TKI against CML was evaluated.
# The present compound was orally administered after breakfast to chronic-phase CML patients (33 patients) aged 20 or older and younger than 80 who had been treated orally with the TKI for 1 year or more. The dosage of the present compound was started at 150 mg/day. […] No patients dropped out or were withdrawn from the study, and all of the patients were included in analysis (SAS analysis, FAS analysis, and PPS analysis).
# The efficacy against CML was evaluated from the following two points: • (1) cumulative achievement rate of CML patients who reached a DMR (BCR-ABL^IS: 0.0032% or less) • (2) change in BCR-ABL^IS
# Within 28 days before the start of administration of the present compound, and 4, 8, 12, 24, 36, and 48 weeks after the start of administration of the present compound or at discontinuation, the investigator collected peripheral blood and conducted a test using a BCR-ABL^IS quantitative PCR kit (produced by Sysmex Corporation) to obtain results (IS%, ABL copy number, and BCR-ABL copy number).
# PAI-1 = biological target: T1, PAI-1 (Homo sapiens, UniProt P05121); test: PAI-1 activity in blood, phase I repeated oral dose study; assay type: in vivo
# T1 construct: from tissue; host or cells: plasma of human subjects (phase I study)
# T1 sequence (P05121 24-402): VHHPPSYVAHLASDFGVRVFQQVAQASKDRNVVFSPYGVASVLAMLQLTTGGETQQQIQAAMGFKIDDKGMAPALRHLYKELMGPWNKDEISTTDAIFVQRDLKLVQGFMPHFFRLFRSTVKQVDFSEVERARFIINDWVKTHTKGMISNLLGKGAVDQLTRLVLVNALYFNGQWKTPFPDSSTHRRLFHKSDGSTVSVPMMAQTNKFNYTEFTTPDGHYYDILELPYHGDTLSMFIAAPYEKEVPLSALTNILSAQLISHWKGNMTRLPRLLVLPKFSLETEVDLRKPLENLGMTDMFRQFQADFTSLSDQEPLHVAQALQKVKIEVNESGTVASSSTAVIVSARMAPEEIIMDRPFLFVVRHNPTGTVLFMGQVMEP
# Protocol: The pharmacological activities (PAI-1 activity and t-PA activity) were evaluated using blood collected from the subjects before and after administration of the present compound or the placebo as test samples. Blood was collected before administration and 2, 4, and 8 hours after administration on the first day of the experiment (day 1) and day 7 after the start of the experiment, and on the other days, blood was collected once a day before administration (only before administration on days 2 to 6, day 8, and day 11 after the start of administration).
# After collecting blood samples from the subjects, the samples were treated with 3.2% citric acid salt and centrifuged at 4° C., 1,800 g for 10 minutes to obtain plasma. The collected plasma was used for measurement of PAI-1 activity and stored frozen at -80° C. or less until measurement.
# The PAI-1 activity was measured using a human PAI-1 activity assay kit (produced by Molecular Innovations Inc.). In this system, a plasma sample collected from a subject is placed on a plate coated with urokinase plasminogen activator (uPA), PAI-1 in the sample is reacted with uPA, and then active PAI-1 bound to uPA is measured as PAI-1 activity using an antigen-antibody reaction with an anti-PAI-1 antibody by measuring the absorbance at a wavelength of 450 nm with a plate reader.
# [2] = tested on: mouse model of bleomycin-induced pulmonary fibrosis; test: Mouse model of bleomycin-induced pulmonary fibrosis; assay type: in vivo
# Protocol: The improvement effect of the present compound on pulmonary fibrosis (remodeling after lung damage) was evaluated using a mouse model of bleomycin-induced pulmonary fibrosis. […] Because of similarity of histopathological changes to pulmonary fibrosis in humans, this mouse model is widely used for the evaluation of the drug efficacy.
# To a fibrosis mouse model (fibrosis model group) given a single dose of bleomycin (1.2 mg/mL), the present compound (0.75 mg/kg/day) was orally administered for 21 days (present compound administration group, n = 9), and biochemical analysis of the lungs and measurement of clinical conditions of the lungs were performed on day 22. For comparison, instead of the present compound, the solvent used to dissolve the present compound was administered to a fibrosis model group in the same manner (vehicle group, n = 10), and biochemical analysis and measurement of clinical conditions of the lungs were performed. As a positive control group, a dexamethasone administration group (0.25 mg/kg administration, n = 9) was used. The biochemical analysis was performed using lung hydroxyproline values as an index. The clinical conditions of the lungs were evaluated by performing Masson’s trichrome staining and calculating Ashcroft scores according to a report of Ashcroft et al. (Ashcroft T et al., J Clin Pathol, 1988; 41:467). The clinical conditions were confirmed by comparing a normal mouse group (normal group, n = 10) with the vehicle group (n = 10), and the improvement effect of the present compound on pulmonary fibrosis was evaluated by comparing the vehicle group (n = 10) with the present compound administration group (n = 9). Differences between the mean values of the groups were tested by the Bonferroni selected pairs test using Prism 4 (GraphPad Software).
# Table 1 and FIG. 3(A) and FIG. 3(B) show the results of comparisons of the lung hydroxyproline values and the Ashcroft scores in the groups. The mean values of the groups are expressed as mean±SD, and examination was performed at a 5% significance level.
# rats = test: Reproductive and developmental toxicity study (fertility and early embryogenesis); assay type: in vivo, rat; conditions: oral, male and female rats
# From the text: The effect of oral administration of the present compound on fertility and early embryogenesis up to implantation was examined using rats. Specifically, the present compound was orally administered to male and female rats for 2 weeks before mating, during mating, until the day before necropsy for the males, and until day 7 of gestation for the females, and the effect on fertility and early embryogenesis of the parents was examined. During the study period, the general conditions, body weights, and food consumption of all of the animals were observed and measured, and a fertility test was performed for the males and females. For the females, an estrous cycle test was performed, and a Cesarean section test was performed at day 13 of gestation. In the females, necropsy was performed at the time of Cesarean section, and in the males, necropsy was performed after completion of the Cesarean section of females.
# [3] = day 22, present compound 0.75 mg/kg/day oral 21 days, dexamethasone 0.25 mg/kg, mean±SD
structure (smiles),measurement,setting,value
"O=C(Nc1ccc(Cl)cc1C(=O)[O-])c1cccc(-c2cccc3cccnc23)c1.[Na+] [present compound, sodium 5-chloro-2-({ [3-(quinolin-8-yl)phenyl]carbonyl}amino)benzoate]","cumulative DMR achievement rate (MR 4.5, BCR-ABL^IS≤0.0032%)",[1]; 120 mg once daily 4 weeks in combination with TKI,increased
same,adverse events causally related to the investigational drug,"[1]; 120 mg once daily 4 weeks with TKI, 21 patients (SAS)",No adverse events
same,Cumulative number of patients who achieved a DMR,"BCR-ABL^IS; 4 weeks after the start of administration, 33 patients",5
same,Cumulative rate of patients who achieved a DMR,BCR-ABL^IS; 4 weeks after the start of administration,15.2%
same,Cumulative number of patients who achieved a DMR,"BCR-ABL^IS; 8 weeks after the start of administration, 33 patients",9
same,Cumulative rate of patients who achieved a DMR,BCR-ABL^IS; 8 weeks after the start of administration,27.3%
same,Cumulative number of patients who achieved a DMR,"BCR-ABL^IS; 12 weeks after the start of administration, 33 patients",9
same,Cumulative rate of patients who achieved a DMR,BCR-ABL^IS; 12 weeks after the start of administration,27.3%
same,change in BCR-ABL^IS vs baseline,"BCR-ABL^IS; 15 patients, 150 mg/day continuous, weeks 12 and 24",significant decrease
same,change in BCR-ABL^IS vs baseline,"BCR-ABL^IS; 18 patients, 150 mg/day to 180 mg/day increase, week 48",significant decrease
same,Cumulative number of patients who achieved a DMR,"BCR-ABL^IS; 24 weeks after the start of administration, 33 patients",10
same,Cumulative rate of patients who achieved a DMR,BCR-ABL^IS; 24 weeks after the start of administration,30.3%
same,change in BCR-ABL^IS vs baseline,"BCR-ABL^IS; 33 patients, from week 12 onward, Wilcoxon test",significant decrease
same,Cumulative number of patients who achieved a DMR,"BCR-ABL^IS; 36 weeks after the start of administration, 33 patients",11
same,Cumulative rate of patients who achieved a DMR,BCR-ABL^IS; 36 weeks after the start of administration,33.3%
same,Cumulative number of patients who achieved a DMR,"BCR-ABL^IS; 48 weeks after the start of administration, 33 patients",11
same,Cumulative rate of patients who achieved a DMR,BCR-ABL^IS; 48 weeks after the start of administration,33.3%
same,cumulative DMR achievement rate,"BCR-ABL^IS; from week 36 onward, 150 to 180 mg/day with TKI",33.3%
same,patients who achieved a DMR,"BCR-ABL^IS; of the 33 patients, 150 to 180 mg/day with TKI",11 patients
same,BCR-ABL^IS level (mean ± standard deviation),"BCR-ABL^IS; week 4, 33 patients, P = 0.1222",0.0134±0.01301%
same,BCR-ABL^IS level (mean ± standard deviation),"BCR-ABL^IS; week 8, 33 patients, P = 0.0929",0.0129±0.01569%
same,BCR-ABL^IS level (mean ± standard deviation),"BCR-ABL^IS; week 12, 33 patients, P = 0.0228",0.0133±0.02012%
same,BCR-ABL^IS level (mean ± standard deviation),"BCR-ABL^IS; week 24, 33 patients, P = 0.0427",0.0149±0.02596%
same,BCR-ABL^IS level (mean ± standard deviation),"BCR-ABL^IS; week 36, 33 patients, P = 0.0304",0.0152±0.03427%
same,BCR-ABL^IS level (mean ± standard deviation),"BCR-ABL^IS; week 48, 33 patients, P = 0.0124",0.0210±0.06718%
same,PAI-1 activity in blood vs placebo,"PAI-1; 60 mg/day oral, days 1 and 7",neither PAI-1 activity nor t-PA activity was different
same,time after administration of maximal decrease in PAI-1 activity,PAI-1; 120 mg/day oral,8 h
same,PAI-1 activity in blood,"PAI-1; 120 mg/day oral, days 1 and 7",decreased
same,dosage at which PAI-1 is significantly inhibited and t-PA enhanced in humans,PAI-1; oral,at least 120 mg per day
same,Ashcroft score compared with vehicle group,[2]; 5% significance level,significantly lower
same,lung hydroxyproline value compared with vehicle group,[2]; 5% significance level,significantly lower
same,Ashcroft score,[2]; [3],2.2±0.3
same,Lung hydroxyproline value,[2]; [3],58.7±10.1 µg/left lung
same,"no-observed-adverse-effect level in the parent animals, including fertility",rats,1000 mg/kg/day
same,no-observed-adverse-effect level with respect to early embryogenesis,rats,1000 mg/kg/day
